According to patent US10617621B2, “Antimicrobial composition” (Conopco, Inc., priority 2016, dated 2020):
Counter-ions that a name gives are not always drawn. Like-named read-outs stand apart in the source and are kept apart here.

Test system: Malassezia furfur
Test: ΣFIC assay against Malassezia furfur (checkerboard in-vitro susceptibility testing, alamar blue)
Format: cell-based, M. furfur (CBS 1878)
Protocol: A brief description of the method is given below.
Methods: ΣFIC Assay Against Malassezia furfur
They are then incubated at 32° C. for 48 hrs with shaking. Then, 1 ml of the first broth culture is transferred into 9 ml of fresh PB and incubated at 32° C. for 48 hrs with shaking. The final culture should contain 2 to 6×10^6 cells/ml. This is achieved by diluting using PB to 5*10^6 cell/ml.
The piperazine compound was serially diluted (2-fold) to prepare in a range of 10-10,000 ppm in growth medium.
Binary combinations of ZPTO and the testing compound were prepared in 96-well plate by mixing 20 μl of zinc pyrithione solution with 20 μl of testing compound. The solution in each well were further mixed with 160 μl of PB and 20 μl of M. furfur. The final cell density in the testing plate is around 5*10^4 cell/ml, and the final concentration of actives in each well of the 96-well plate were shown below.
The plate was incubated at 32° C. for one day. Then 20 μl of alamar blue (0.01%) was added into each well with a further incubation for one day to observe the color change. Red color indicates microbial growth and the non-changing blue color indicates no growth.
The MIC is defined as the absolute lowest concentration of active that provides complete microbial growth inhibition as indicated by the blue color of alamar blue under the tested condition.
The differing behaviours of inhibitory antimicrobials in isolation and mixtures have been widely explored using the concept of the Fractional Concentration (FC) and Fractional Inhibitory Concentration (FIC). The parameter can be defined as follows: […]
The interactions between antimicrobials can be additive, synergistic or antagonistic depending on whether the efficacy of the combination is equivalent to, greater than or less than that obtained for the same total concentration of the individual components when tested alone.
These relationships can be expressed mathematically by summing the fractional MIC values for all the components present in the mixture to give the “fractional inhibition index”. There is no consistent approach in the academic or patent literature in defining precise limiting ΣFIC values that differentiate synergy from additivity or antagonism. In this study, we have adopted a liberal approach defining any binary mixture with ΣFIC<0.9 as showing evidence of synergistic behavior.
ΣFIC=FIC (component 1)+FIC (component 2)
ΣFIC=1 corresponds to additive bactericidal activity
ΣFIC>1 corresponds to antagonistic bactericidal activity
ΣFIC<0.9 corresponds to synergistic bactericidal activity

[1] = CBS1878, active alone, M. furfur CBS 1878 in Pityrosporum Broth, 32° C., complete growth inhibition by alamar blue, read-out: Minimum Inhibition Concentration (MIC)
[2] = CBS1878, read-out: Minimum Inhibition Concentration (MIC)

| Compound | MIC [1] [µg/mL] | MIC [2] [µg/mL] |
| --- | --- | --- |
| O=C(c1ccccc1F)N1CCN(C2CCC(c3ccccc3)CC2)CC1 (centres unmarked) [1-(2-fluorobenzoyl)-4-(4-phenylcylcohexyl)piperazine] | 100 |  |
| CCc1ccc(CN2CCN(Cc3cccc(Cl)c3)CC2)cc1 [1-(3-chlorobenzyl)-4-(4-ethylbenzyl)piperazine oxalate] |  | > 1000 |
| CCc1ccc(CN2CCN(C3CCC(C)CC3)CC2)cc1 (centres unmarked) [1-(4-ethylbenzyl)-4-(4-methylcyclohexyl)piperazine oxalate] |  | 125 |
| CC(C)C(=O)N1CCN(c2ccc(F)cc2)CC1 [1-(4-fluorophenyl)-4-isobutyrylpiperazine] | > 1000 |  |
| CC(C)C(=O)N1CCN(c2ccccc2)CC1 [1-isobutyryl-4-phenylpiperazine] | > 1000 |  |
